What was measured:
H1047R PIK3CA enzyme = H1047R PIK3CA enzyme (Homo sapiens, UniProt P42336, H1047R); assay: ADP-Glo Biochemical PIK3CA Kinase Assay; details: ADP-Glo biochemical PIK3CA kinase assay
cells = details: Homo sapiens, MCF-10A, read-out: MCF10A I50

H1047R PIK3CA enzyme, sequence (P42336 whole entry H1047R): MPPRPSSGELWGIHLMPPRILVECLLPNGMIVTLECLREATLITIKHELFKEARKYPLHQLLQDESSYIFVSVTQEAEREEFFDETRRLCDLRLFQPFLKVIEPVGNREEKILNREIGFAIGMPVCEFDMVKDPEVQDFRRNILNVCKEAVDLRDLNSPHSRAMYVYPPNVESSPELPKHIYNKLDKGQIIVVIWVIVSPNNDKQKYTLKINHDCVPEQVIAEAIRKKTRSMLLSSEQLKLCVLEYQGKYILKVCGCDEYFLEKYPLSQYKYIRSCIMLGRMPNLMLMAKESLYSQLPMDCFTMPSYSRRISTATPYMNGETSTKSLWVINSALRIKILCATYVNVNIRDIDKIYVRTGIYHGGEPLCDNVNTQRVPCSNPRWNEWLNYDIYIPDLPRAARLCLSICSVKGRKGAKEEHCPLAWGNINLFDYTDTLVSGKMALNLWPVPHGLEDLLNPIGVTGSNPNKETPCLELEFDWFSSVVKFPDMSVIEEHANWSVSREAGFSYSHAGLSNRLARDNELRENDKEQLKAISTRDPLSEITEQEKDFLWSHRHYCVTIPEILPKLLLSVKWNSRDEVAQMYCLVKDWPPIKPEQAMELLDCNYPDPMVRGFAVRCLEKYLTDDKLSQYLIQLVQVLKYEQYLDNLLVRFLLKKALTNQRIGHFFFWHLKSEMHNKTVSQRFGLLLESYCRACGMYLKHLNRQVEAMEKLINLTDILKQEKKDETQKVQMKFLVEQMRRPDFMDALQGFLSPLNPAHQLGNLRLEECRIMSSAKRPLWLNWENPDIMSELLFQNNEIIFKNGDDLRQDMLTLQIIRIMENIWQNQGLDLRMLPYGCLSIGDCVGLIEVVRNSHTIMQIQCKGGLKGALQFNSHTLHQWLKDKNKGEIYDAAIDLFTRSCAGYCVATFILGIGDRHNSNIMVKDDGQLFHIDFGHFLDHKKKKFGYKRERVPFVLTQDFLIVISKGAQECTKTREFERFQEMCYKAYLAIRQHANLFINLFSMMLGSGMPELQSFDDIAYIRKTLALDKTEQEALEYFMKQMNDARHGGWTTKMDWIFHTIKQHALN
H1047R PIK3CA enzyme, sequence (P27986 whole entry partner): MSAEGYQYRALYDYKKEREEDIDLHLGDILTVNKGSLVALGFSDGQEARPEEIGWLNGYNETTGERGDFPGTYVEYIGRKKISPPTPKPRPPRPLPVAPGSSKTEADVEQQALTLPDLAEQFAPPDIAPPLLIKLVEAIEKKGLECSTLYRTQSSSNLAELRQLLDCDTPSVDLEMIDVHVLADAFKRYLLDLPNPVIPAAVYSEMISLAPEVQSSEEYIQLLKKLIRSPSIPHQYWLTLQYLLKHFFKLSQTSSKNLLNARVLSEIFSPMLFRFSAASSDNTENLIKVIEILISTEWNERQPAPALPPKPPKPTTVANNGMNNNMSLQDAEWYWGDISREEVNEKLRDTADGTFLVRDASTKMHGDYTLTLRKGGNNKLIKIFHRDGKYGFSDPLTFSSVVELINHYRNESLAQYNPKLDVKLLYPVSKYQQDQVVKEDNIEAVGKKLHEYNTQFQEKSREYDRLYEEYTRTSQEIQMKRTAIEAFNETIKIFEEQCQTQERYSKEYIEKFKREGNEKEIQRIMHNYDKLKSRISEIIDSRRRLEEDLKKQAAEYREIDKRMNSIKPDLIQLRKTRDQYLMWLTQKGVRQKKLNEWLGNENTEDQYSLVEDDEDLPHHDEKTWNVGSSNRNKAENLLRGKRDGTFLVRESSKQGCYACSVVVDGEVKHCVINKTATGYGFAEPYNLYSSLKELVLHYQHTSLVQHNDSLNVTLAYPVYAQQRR

| SMILES | IC50 (H1047R PIK3CA enzyme) | IC50 (cells) |
| --- | --- | --- |
| Cc1ccccc1Nc1ncc(C(=O)NCC2CCNC(=O)C2)cc1NC(=O)c1csc2ccccc12 (centres unmarked) [I-569] | 0.1 to 0.5 µM | 10 to 36 µM |
| Cc1ccccc1Nc1ncc(C(=O)NCCn2ccnn2)cc1NC(=O)c1csc2ccccc12 [I-570] | 0.1 to 0.5 µM | 10 to 36 µM |
| Cc1ccccc1Nc1ncc(C(=O)N[C@H]2CCC(F)(F)C[C@@H]2O)cc1NC(=O)c1csc2ccccc12 [I-571] | 0.1 to 0.5 µM | 1 to 5 µM |
| Cc1ccccc1Nc1ncc(C(=O)NCc2ccncn2)cc1NC(=O)c1csc2ccccc12 [I-572] | 0.1 to 0.5 µM | < 1 µM |
| Cc1ccccc1Nc1ncc(C(=O)Nc2ncn(C)n2)cc1NC(=O)c1csc2ccccc12 [I-573] | 0.5 to 1 µM | 10 to 36 µM |
| Cc1ccccc1Nc1ncc(C(=O)NCCn2nccn2)cc1NC(=O)c1csc2ccccc12 [I-578] | 0.1 to 0.5 µM | 10 to 36 µM |
| Cc1cncc(CNC(=O)c2cnc(Nc3ccccc3C)c(NC(=O)c3csc4ccccc34)c2)c1 [I-579] | ≤ 0.1 µM | 5 to 10 µM |
| Cc1ccccc1Nc1ncc(C(=O)NCC2(C#N)CC2)cc1NC(=O)c1csc2ccccc12 [I-580] | ≤ 0.1 µM | 1 to 5 µM |
| Cc1ccccc1Nc1ncc(C(=O)NC2(C)CC2)cc1NC(=O)c1csc2ccccc12 [I-581] | ≤ 0.1 µM | 1 to 5 µM |
| Cc1ccccc1Nc1ncc(C(=O)NCc2nnc3ccccn23)cc1NC(=O)c1csc2ccccc12 [I-582] | ≤ 0.1 µM | 5 to 10 µM |
| Cc1ccccc1Nc1ncc(C(=O)NCC2(O)CCOC2)cc1NC(=O)c1csc2ccccc12 (centres unmarked) [I-583] | 0.5 to 1 µM | 10 to 36 µM |
| Cc1ccccc1Nc1ncc(C(=O)NC2CCOCC2)cc1NC(=O)c1csc2ccccc12 [I-584] | 0.1 to 0.5 µM | 5 to 10 µM |
| Cc1ccccc1Nc1ncc(C(=O)NC2COCC(O)C2)cc1NC(=O)c1csc2ccccc12 (centres unmarked) [I-585] | 0.1 to 0.5 µM | 10 to 36 µM |
| Cc1ccccc1Nc1ncc(C(=O)NCC2CCC(O)C2)cc1NC(=O)c1csc2ccccc12 (centres unmarked) [I-588] | 0.1 to 0.5 µM | 10 to 36 µM |
| Cc1ccccc1Nc1ncc(C(=O)N[C@@H]2COC[C@@H]2F)cc1NC(=O)c1csc2ccccc12 [I-590] | 0.1 to 0.5 µM | 5 to 10 µM |
| Cc1ccccc1Nc1ncc(C(=O)N[C@H]2C[C@@H](C(N)=O)C2)cc1NC(=O)c1csc2ccccc12 [I-591] | ≤ 0.1 µM | 1 to 5 µM |

| SMILES | IC50 (H1047R PIK3CA enzyme) | IC50 (cells) |
| --- | --- | --- |
| COCC(=O)N1CCC(NC(=O)c2cnc(Nc3ccccc3C)c(NC(=O)c3csc4ccccc34)c2)CC1 [I-592] | 1 to 10 µM | 5 to 10 µM |
| Cc1ccccc1Nc1ncc(C(=O)NCc2nccc3ccccc23)cc1NC(=O)c1csc2ccccc12 [I-593] | 0.1 to 0.5 µM | 10 to 36 µM |
| Cc1ccccc1Nc1ncc(C(=O)N[C@@H]2CCO[C@@H]2C)cc1NC(=O)c1csc2ccccc12 [I-594] | 0.1 to 0.5 µM | 5 to 10 µM |
| Cc1ccccc1Nc1ncc(C(=O)N[C@H]2CC[C@@H](O)C2)cc1NC(=O)c1csc2ccccc12 [I-596] | 0.1 to 0.5 µM | 1 to 5 µM |
| Cc1ccccc1Nc1ncc(C(=O)NCC(=O)N2CCCC2)cc1NC(=O)c1csc2ccccc12 [I-597] | 1 to 10 µM | 36 to 100 µM |
| COc1cc(CCNC(=O)c2cnc(Nc3ccccc3C)c(NC(=O)c3csc4ccccc34)c2)ccn1 [I-598] | 0.1 to 0.5 µM | 5 to 10 µM |
| Cc1ccccc1Nc1ncc(C(=O)NCC2(O)CC2)cc1NC(=O)c1csc2ccccc12 [I-599] | 0.1 to 0.5 µM | 5 to 10 µM |
| Cc1ccccc1Nc1ncc(C(=O)NCc2cn(C)nc2C)cc1NC(=O)c1csc2ccccc12 [I-601] | ≤ 0.1 µM | 5 to 10 µM |
| Cc1ccccc1Nc1ncc(C(=O)NCc2cocn2)cc1NC(=O)c1csc2ccccc12 [I-602] | 0.1 to 0.5 µM | 10 to 36 µM |
| Cc1ccccc1Nc1ncc(C(=O)NCC2(O)CCOCC2)cc1NC(=O)c1csc2ccccc12 [I-603] | 0.5 to 1 µM | 10 to 36 µM |
| Cc1cc(CNC(=O)c2cnc(Nc3ccccc3C)c(NC(=O)c3csc4ccccc34)c2)no1 [I-604] | ≤ 0.1 µM | 1 to 5 µM |
| Cc1ccccc1Nc1ncc(C(=O)NC(C)c2cn[nH]c2)cc1NC(=O)c1csc2ccccc12 (centres unmarked) [I-605] | ≤ 0.1 µM | 1 to 5 µM |
| Cc1ccccc1Nc1ncc(C(=O)N2CC(C)C2)cc1NC(=O)c1csc2ccccc12 [I-607] | 0.1 to 0.5 µM | 5 to 10 µM |
| Cc1ccccc1Nc1ncc(C(=O)NCC2(S(C)(=O)=O)CCC2)cc1NC(=O)c1csc2ccccc12 [I-608] | 0.5 to 1 µM | 10 to 36 µM |
| Cc1ccccc1Nc1ncc(C(=O)Nc2ccc3cn(C)nc3c2)cc1NC(=O)c1csc2ccccc12 [I-609] | ≤ 0.1 µM | 1 to 5 µM |
